Experimental data as given in PubChem BioAssay AID488931 (Broad Institute, 2010).
Activity calls are given as the source filed them.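 How the source made its calls: active means rising protection curve whose AC50 sits at or below ten times the top dose tested for that sample; inconclusive means flat response between 30 and 70 percent, or poor fit; inactive means the rest.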

tested on: not listed separately; experiment: protection from cytokine-induced mitochondrial depolarization, dose response, cell-based, INS-1E, JC-1 fluorescence ratio, dry powder (AID 488931); settings: INS-1E cytokine-induced mitochondrial depolarization, JC-1 ratio, 48 h; at 19.5 µM (top of the series)

Compound	protection from depolarization
C[C@@H]1CN([C@@H](C)CO)C(=O)c2cccc(NC(=O)Nc3cccc4ccccc34)c2O[C@H]1CN(C)C(=O)Nc1ccccc1	-8.43% (inactive)
COc1ccc(S(=O)(=O)N(C)C[C@@H]2Oc3c(NS(=O)(=O)c4cn(C)cn4)cccc3C(=O)N([C@@H](C)CO)C[C@H]2C)cc1	1.64% (inactive)
COc1ccc(S(=O)(=O)N(C)C[C@@H]2Oc3c(NC(=O)C4CCOCC4)cccc3C(=O)N([C@@H](C)CO)C[C@H]2C)cc1	0.344% (inactive)
COc1ccc(NC(=O)N(C)C[C@@H]2Oc3c(NC(=O)Nc4cccc5ccccc45)cccc3C(=O)N([C@@H](C)CO)C[C@H]2C)cc1	-6.82% (inactive)
Cc1noc(C)c1NC(=O)N(C)C[C@@H]1Oc2c(NC(=O)Nc3cccc4ccccc34)cccc2C(=O)N([C@@H](C)CO)C[C@H]1C	10.5% (inactive)
COc1ccc(S(=O)(=O)N(C)C[C@@H]2Oc3c(NC(=O)Nc4ccc(F)cc4)cccc3C(=O)N([C@H](C)CO)C[C@H]2C)cc1	10.6% (inactive)
COc1ccc(S(=O)(=O)N(C)C[C@@H]2Oc3c(NS(=O)(=O)c4ccc(Cl)cc4)cccc3C(=O)N([C@@H](C)CO)C[C@H]2C)cc1	3.44% (inactive)
COc1ccc(S(=O)(=O)N(C)C[C@@H]2Oc3c(NC(=O)Nc4cccc5ccccc45)cccc3C(=O)N([C@@H](C)CO)C[C@H]2C)c(OC)c1	9.11% (inactive)
COc1ccccc1S(=O)(=O)N(C)C[C@@H]1Oc2c(NC(=O)Nc3cccc4ccccc34)cccc2C(=O)N([C@@H](C)CO)C[C@H]1C	4.59% (inactive)
C[C@@H]1CN([C@@H](C)CO)C(=O)c2cccc(NC(=O)Nc3cccc4ccccc34)c2O[C@H]1CN(C)C(=O)Nc1ccc2c(c1)OCO2	0.627% (inactive)
C[C@@H]1CN([C@@H](C)CO)C(=O)c2cccc(NC(=O)Nc3cccc4ccccc34)c2O[C@H]1CN(C)S(=O)(=O)c1ccc(F)cc1	6.22% (inactive)
C[C@@H]1CN([C@@H](C)CO)C(=O)c2cccc(NC(=O)Nc3cccc4ccccc34)c2O[C@H]1CN(C)S(=O)(=O)c1ccccc1F	-1.29% (inactive)
COc1ccc(S(=O)(=O)N(C)C[C@@H]2Oc3c(NC(=O)NC4CCCCC4)cccc3C(=O)N([C@@H](C)CO)C[C@H]2C)cc1	16.4% (inactive)
COc1ccc(S(=O)(=O)N(C)C[C@@H]2Oc3c(NC(=O)c4nc5ccccc5s4)cccc3C(=O)N([C@@H](C)CO)C[C@H]2C)cc1	-8.98% (inactive)
C[C@@H]1CN([C@@H](C)CO)C(=O)c2cccc(NC(=O)Nc3cccc4ccccc34)c2O[C@H]1CN(C)CC1CC1	9.67% (inactive)
C[C@@H]1CN([C@@H](C)CO)C(=O)c2cccc(NC(=O)Nc3cccc4ccccc34)c2O[C@H]1CN(C)S(=O)(=O)c1cccc(F)c1	-3.75% (inactive)
C[C@@H]1CN([C@H](C)CO)C(=O)c2cccc(NC(=O)Nc3cccc4ccccc34)c2O[C@H]1CN(C)S(=O)(=O)c1ccc(Cl)cc1	20.7% (inactive)
COc1ccc(S(=O)(=O)N(C)C[C@@H]2Oc3c(NC(=O)Nc4cccc5ccccc45)cccc3C(=O)N([C@H](C)CO)C[C@@H]2C)cc1	2.53% (inactive)
COc1ccc(S(=O)(=O)N(C)C[C@@H]2Oc3c(NS(=O)(=O)c4ccccc4)cccc3C(=O)N([C@@H](C)CO)C[C@H]2C)cc1	7.15% (inactive)
COc1ccc(S(=O)(=O)N(C)C[C@@H]2Oc3c(NC(=O)c4cc(C)nn4C)cccc3C(=O)N([C@@H](C)CO)C[C@H]2C)cc1	-6.67% (inactive)
C[C@@H]1CN([C@@H](C)CO)C(=O)c2cccc(NC(=O)Nc3cccc4ccccc34)c2O[C@H]1CN(C)S(=O)(=O)c1cccs1	-8.53% (inactive)
COc1ccc(S(=O)(=O)N(C)C[C@@H]2Oc3c(NC(=O)c4cccc5ccccc45)cccc3C(=O)N([C@@H](C)CO)C[C@H]2C)cc1	5.96% (inactive)
COc1ccc(S(=O)(=O)N(C)C[C@@H]2Oc3c(NC(=O)Nc4ccc(F)cc4)cccc3C(=O)N([C@@H](C)CO)C[C@H]2C)cc1	23.9% (inactive)
COc1ccc(S(=O)(=O)N(C)C[C@@H]2Oc3c(NC(=O)Nc4cccc5ccccc45)cccc3C(=O)N([C@@H](C)CO)C[C@H]2C)cc1	10.7% (inactive)
Cc1ccc(S(=O)(=O)N(C)C[C@@H]2Oc3c(NC(=O)Nc4cccc5ccccc45)cccc3C(=O)N([C@@H](C)CO)C[C@H]2C)cc1	13.7% (inactive)
C[C@@H]1CN([C@@H](C)CO)C(=O)c2cccc(NC(=O)Nc3cccc4ccccc34)c2O[C@H]1CN(C)C(=O)Nc1ccc(C(F)(F)F)cc1	-10.5% (inactive)
COc1ccc(S(=O)(=O)N(C)C[C@@H]2Oc3c(NC(=O)c4cnccn4)cccc3C(=O)N([C@@H](C)CO)C[C@H]2C)cc1	-0.183% (inactive)
CNC[C@@H]1Oc2c(NC(=O)Nc3cccc4ccccc34)cccc2C(=O)N([C@@H](C)CO)C[C@H]1C	4.81% (inactive)

Compound	protection from depolarization
C[C@@H]1CN([C@@H](C)CO)C(=O)c2cccc(NS(=O)(=O)c3ccccc3)c2O[C@H]1CN(C)Cc1ccc(C(F)(F)F)cc1	-0.0726% (inactive)
COc1ccc(S(=O)(=O)N(C)C[C@H]2Oc3c(NC(=O)Nc4cccc5ccccc45)cccc3C(=O)N([C@H](C)CO)C[C@H]2C)cc1	7.31% (inactive)
COc1ccc(S(=O)(=O)N(C)C[C@@H]2Oc3c(NC(=O)c4ccc(-c5nccs5)cc4)cccc3C(=O)N([C@@H](C)CO)C[C@H]2C)cc1	3.72% (inactive)
C[C@H]1CN([C@@H](C)CO)C(=O)c2cccc(NC(=O)NC3CCCCC3)c2O[C@@H]1CN(C)S(C)(=O)=O	4.62% (inactive)
C[C@@H]1CN([C@@H](C)CO)C(=O)c2cccc(NC(=O)Nc3cccc4ccccc34)c2O[C@H]1CN(C)S(=O)(=O)c1ccc(OC(F)(F)F)cc1	-17.1% (inactive)
C[C@@H]1CN([C@H](C)CO)C(=O)c2cccc(NC(=O)Nc3ccccc3)c2O[C@H]1CN(C)S(=O)(=O)c1ccc(F)cc1	3.73% (inactive)
COc1ccc(S(=O)(=O)N(C)C[C@@H]2Oc3ccc(NC(=O)Nc4cccc5ccccc45)cc3C(=O)N([C@@H](C)CO)C[C@H]2C)cc1	-7.17% (inactive)
C[C@@H]1CN([C@@H](C)CO)C(=O)c2cccc(NC(=O)Nc3ccccc3)c2O[C@H]1CN(C)S(=O)(=O)c1ccc(Cl)cc1	18.7% (inactive)
C[C@@H]1CN([C@@H](C)CO)C(=O)c2cccc(NC(=O)Nc3cccc4ccccc34)c2O[C@H]1CN(C)S(=O)(=O)c1ccc2c(c1)OCO2	14.5% (inactive)
COc1ccc(NC(=O)Nc2cccc3c2O[C@@H](CN(C)S(=O)(=O)c2ccc(OC)cc2)[C@H](C)CN([C@@H](C)CO)C3=O)cc1	-0.254% (inactive)
C[C@@H]1CN([C@@H](C)CO)C(=O)c2cccc(NC(=O)Nc3cccc4ccccc34)c2O[C@H]1CN(C)S(=O)(=O)c1cn(C)cn1	-9.26% (inactive)
Cc1ccc(S(=O)(=O)N(C)C[C@@H]2Oc3c(NC(=O)Nc4ccc(F)cc4)cccc3C(=O)N([C@H](C)CO)C[C@H]2C)cc1	15.8% (inactive)
COc1ccc(S(=O)(=O)N(C)C[C@@H]2Oc3c(cccc3N(C)C)C(=O)N([C@@H](C)CO)C[C@H]2C)cc1	-3.81% (inactive)
C[C@@H]1CN([C@@H](C)CO)C(=O)c2cccc(NC(=O)Nc3cccc4ccccc34)c2O[C@H]1CN(C)S(=O)(=O)c1ccc2c(c1)OCCO2	19.2% (inactive)
C[C@@H]1CN([C@@H](C)CO)C(=O)c2cccc(NC(=O)Nc3cccc4ccccc34)c2O[C@H]1CN(C)S(=O)(=O)c1ccc2c(c1)oc(=O)n2C	23.7% (inactive)
COc1ccc(S(=O)(=O)N(C)C[C@@H]2Oc3c(NS(=O)(=O)c4ccc(F)cc4)cccc3C(=O)N([C@@H](C)CO)C[C@H]2C)cc1	2.07% (inactive)
C[C@@H]1CN([C@H](C)CO)C(=O)c2cccc(NC(=O)Nc3ccccc3)c2O[C@H]1CN(C)S(=O)(=O)c1ccc(Cl)cc1	27.7% (inactive)
COc1ccc(S(=O)(=O)N(C)C[C@@H]2Oc3c(NS(C)(=O)=O)cccc3C(=O)N([C@@H](C)CO)C[C@H]2C)cc1	-3.87% (inactive)
Cc1ccc(S(=O)(=O)N(C)C[C@H]2Oc3c(NC(=O)Nc4cccc5ccccc45)cccc3C(=O)N([C@@H](C)CO)C[C@@H]2C)cc1	-8.26% (inactive)
C[C@@H]1CN([C@@H](C)CO)C(=O)c2cccc(NC(=O)Nc3ccccc3)c2O[C@H]1CN(C)S(=O)(=O)c1ccc(F)cc1	11.5% (inactive)
C[C@@H]1CN([C@@H](C)CO)C(=O)c2cccc(NC(=O)Nc3cccc4ccccc34)c2O[C@H]1CN(C)S(=O)(=O)c1ccc2c(c1)OCCCO2	5.1% (inactive)
C[C@@H]1CN([C@@H](C)CO)C(=O)c2cccc(NC(=O)Nc3cccc4ccccc34)c2O[C@H]1CN(C)C(=O)NC1CCCCC1	-5.64% (inactive)
COc1ccc(S(=O)(=O)N(C)C[C@@H]2Oc3c(NC(=O)Nc4ccc(C(F)(F)F)cc4)cccc3C(=O)N([C@@H](C)CO)C[C@H]2C)cc1	12.6% (inactive)
COc1ccc(S(=O)(=O)N(C)C[C@@H]2Oc3c(NS(=O)(=O)c4ccc(C)cc4)cccc3C(=O)N([C@@H](C)CO)C[C@H]2C)cc1	2.95% (inactive)
COc1ccc(S(=O)(=O)N(C)C[C@@H]2Oc3c(NC(=O)C4CC4)cccc3C(=O)N([C@@H](C)CO)C[C@H]2C)cc1	0.699% (inactive)
C[C@@H]1CN([C@@H](C)CO)C(=O)c2cccc(NC(=O)Nc3cccc4ccccc34)c2O[C@H]1CN(C)S(=O)(=O)c1ccccc1	12.8% (inactive)
C[C@@H]1CN([C@@H](C)CO)C(=O)c2cccc(NC(=O)Nc3cccc4ccccc34)c2O[C@H]1CN(C)C(=O)Nc1ccc(F)cc1	-0.192% (inactive)

tested on: INS-1E cytokine-induced mitochondrial depolarization, JC-1 ratio, 48 h; experiment: as above; settings: not given

Compound	AC50
COc1ccc(S(=O)(=O)N(C)C[C@@H]2Oc3c(NC(=O)Nc4ccccc4)cccc3C(=O)N([C@H](C)CO)C[C@H]2C)cc1	> 19.5 µM (inactive)
